Assay results taken from PubChem BioAssay AID1919010 (Molecular Pharmacology Branch, DTP, NCI, 2023).

System: Hs578T complex spheroid growth, percent test/control
Experiment: Anticancer human tumor Hs578T cell line growth inhibition [AhR];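 note: luminescent viability signal as a proxy for spheroid growth; spheroids exposed to agents for one week after three days of growth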
Settings: for IC50: curve of first compound; for viability, T/C: stronger effect = lower value
In short: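 Agents were dosed in half-log steps down from roughly clinical Cmax, or from 10 microM where Cmax was unknown, alone and with AhR antagonists. Read-out: percent test/control growth of tumor spheroids containing HUVEC and MSC stromal cells.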

[1] = second compound 0.1 µM, first compound 0.0316 µM
[2] = second compound 0.1 µM, first compound 0.1 µM
[3] = second compound 0.1 µM, first compound 0.316 µM
[4] = second compound 0.1 µM, first compound 1 µM
[5] = second compound 0.316 µM, first compound 0.0316 µM
[6] = second compound 0.316 µM, first compound 0.1 µM
[7] = second compound 0.316 µM, first compound 0.316 µM
[8] = second compound 0.316 µM, first compound 1 µM
[9] = second compound 1 µM, first compound 0.0316 µM
[10] = second compound 1 µM, first compound 0.1 µM
[11] = second compound 1 µM, first compound 0.316 µM
[12] = second compound 1 µM, first compound 1 µM
[13] = second compound 3.16 µM, first compound 0.0316 µM
[14] = second compound 3.16 µM, first compound 0.1 µM
[15] = second compound 3.16 µM, first compound 0.316 µM
[16] = second compound 3.16 µM, first compound 1 µM
[17] = second compound 10 µM, first compound 0.0316 µM
[18] = second compound 10 µM, first compound 0.1 µM
[19] = second compound 10 µM, first compound 0.316 µM
[20] = second compound 10 µM, first compound 1 µM
[21] = second compound 0.1 µM, first compound 3.16 µM
[22] = second compound 0.1 µM, first compound 10 µM
[23] = second compound 0.316 µM, first compound 3.16 µM
[24] = second compound 0.316 µM, first compound 10 µM
[25] = second compound 1 µM, first compound 3.16 µM
[26] = second compound 1 µM, first compound 10 µM
[27] = second compound 3.16 µM, first compound 3.16 µM
[28] = second compound 3.16 µM, first compound 10 µM
[29] = second compound 10 µM, first compound 3.16 µM
[30] = second compound 10 µM, first compound 10 µM
[31] = second compound 0.1 µM, first compound 0.00949 µM
[32] = second compound 0.1 µM, first compound 0.03 µM
[33] = second compound 0.1 µM, first compound 0.0949 µM
[34] = second compound 0.1 µM, first compound 0.3 µM
[35] = second compound 0.316 µM, first compound 0.00949 µM
[36] = second compound 0.316 µM, first compound 0.03 µM
[37] = second compound 0.316 µM, first compound 0.0949 µM
[38] = second compound 0.316 µM, first compound 0.3 µM
[39] = second compound 1 µM, first compound 0.00949 µM
[40] = second compound 1 µM, first compound 0.03 µM
[41] = second compound 1 µM, first compound 0.0949 µM
[42] = second compound 1 µM, first compound 0.3 µM
[43] = second compound 3.16 µM, first compound 0.00949 µM
[44] = second compound 3.16 µM, first compound 0.03 µM
[45] = second compound 3.16 µM, first compound 0.0949 µM
[46] = second compound 3.16 µM, first compound 0.3 µM
[47] = second compound 10 µM, first compound 0.00949 µM
[48] = second compound 10 µM, first compound 0.03 µM
[49] = second compound 10 µM, first compound 0.0949 µM
[50] = second compound 10 µM, first compound 0.3 µM

Work on `CC1COCCN1c1cc(-c2ccnn2C)c2ccnc(-c3ccn[nH]3)c2n1` (stereo not given) + Cc1ccccc1N=Nc1ccc(NC(=O)c2ccnn2C)c(C)c1 yielded an IC50 (second compound 0.1 µM) of 315 nM, an IC50 (second compound 0.316 µM) of 292 nM and an IC50 (second compound 1 µM) of 266 nM. It also gave an IC50 (second compound 3.16 µM) of 283 nM, an IC50 (second compound 10 µM) of 182 nM and a viability, T/C (second compound 0.1 µM, first compound 0.00316 µM) of 107%. For the same compound, the viability, T/C (second compound 0.1 µM, first compound 0.01 µM) was 109%, the viability, T/C [1] was 97% and the viability, T/C [2] was 80.8%. It also gave a viability, T/C [3] of 48.9%, a viability, T/C [4] of 35% and a viability, T/C (second compound 0.316 µM, first compound 0.00316 µM) of 105%. For the same compound, the viability, T/C (second compound 0.316 µM, first compound 0.01 µM) was 128%, the viability, T/C [5] was 109% and the viability, T/C [6] was 88%. It also gave a viability, T/C [7] of 46.6%, a viability, T/C [8] of 39.1% and a viability, T/C (second compound 1 µM, first compound 0.00316 µM) of 106%. The viability, T/C (second compound 1 µM, first compound 0.01 µM) was 109%, the viability, T/C [9] was 109% and the viability, T/C [10] was 85.6%. For the same compound, the viability, T/C [11] was 44.2%, the viability, T/C [12] was 32.1% and the viability, T/C (second compound 3.16 µM, first compound 0.00316 µM) was 106%. For the same compound, the viability, T/C (second compound 3.16 µM, first compound 0.01 µM) was 97.5%, the viability, T/C [13] was 89.7% and the viability, T/C [14] was 78%. The viability, T/C [15] was 43.5%, the viability, T/C [16] was 37% and the viability, T/C (second compound 10 µM, first compound 0.00316 µM) was 69.1%. It also gave a viability, T/C (second compound 10 µM, first compound 0.01 µM) of 64.7%, a viability, T/C [17] of 65% and a viability, T/C [18] of 59.8%. The viability, T/C [19] was 40.1% and the viability, T/C [20] was 41.9%.

Work on `CC1COCCN1c1cc(C2(S(C)(=N)=O)CC2)nc(-c2ccnc3[nH]ccc23)n1` (stereo not given) + Cc1ccccc1N=Nc1ccc(NC(=O)c2ccnn2C)c(C)c1 yielded an IC50 (second compound 0.1 µM) of 9250 nM, an IC50 (second compound 0.316 µM) of over 10000 nM and an IC50 (second compound 1 µM) of 9240 nM. It also gave an IC50 (second compound 3.16 µM) of over 10000 nM, an IC50 (second compound 10 µM) of over 10000 nM and a viability, T/C [1] of 110%. The viability, T/C [2] was 102%, the viability, T/C [3] was 102% and the viability, T/C [4] was 96.6%. It also gave a viability, T/C [21] of 77.9%, a viability, T/C [22] of 47.9% and a viability, T/C [5] of 101%. For the same compound, the viability, T/C [6] was 101%, the viability, T/C [7] was 100% and the viability, T/C [8] was 93.4%. It also gave a viability, T/C [23] of 76.9%, a viability, T/C [24] of 52.4% and a viability, T/C [9] of 94.6%. It also gave a viability, T/C [10] of 102%, a viability, T/C [11] of 99.5% and a viability, T/C [12] of 86.3%. It also gave a viability, T/C [25] of 73.7%, a viability, T/C [26] of 48.1% and a viability, T/C [13] of 85.4%. The viability, T/C [14] was 93.3%, the viability, T/C [15] was 89.7% and the viability, T/C [16] was 84.4%. It also gave a viability, T/C [27] of 69.2%, a viability, T/C [28] of 51.4% and a viability, T/C [17] of 62.9%. For the same compound, the viability, T/C [18] was 62%, the viability, T/C [19] was 76.1% and the viability, T/C [20] was 68.5%. The viability, T/C [29] was 61.6% and the viability, T/C [30] was 47.7%.

Compound `COc1ccc([C@@H](O)c2cc(-c3ncnc4cc(N5CCOCC5)ccc34)c(F)cc2Cl)nn1` + Cc1ccccc1N=Nc1ccc(NC(=O)c2ccnn2C)c(C)c1 has an IC50 (second compound 0.1 µM) of 3400 nM, an IC50 (second compound 0.316 µM) of 4790 nM and an IC50 (second compound 1 µM) of 3330 nM. The IC50 (second compound 3.16 µM) was 2870 nM, the IC50 (second compound 10 µM) was 3080 nM and the viability, T/C [1] was 106%. The viability, T/C [2] was 112%, the viability, T/C [3] was 92.8% and the viability, T/C [4] was 82.6%. It also gave a viability, T/C [21] of 49.5%, a viability, T/C [22] of 32.2% and a viability, T/C [5] of 116%. For the same compound, the viability, T/C [6] was 108%, the viability, T/C [7] was 99.4% and the viability, T/C [8] was 89.8%. For the same compound, the viability, T/C [23] was 58.4%, the viability, T/C [24] was 31.8% and the viability, T/C [9] was 107%. For the same compound, the viability, T/C [10] was 106%, the viability, T/C [11] was 100% and the viability, T/C [12] was 80.3%. For the same compound, the viability, T/C [25] was 50.8%, the viability, T/C [26] was 34.5% and the viability, T/C [13] was 98.7%. For the same compound, the viability, T/C [14] was 93.2%, the viability, T/C [15] was 86.9% and the viability, T/C [16] was 77.8%. The viability, T/C [27] was 46.1%, the viability, T/C [28] was 30.5% and the viability, T/C [17] was 74.3%. It also gave a viability, T/C [18] of 68.2%, a viability, T/C [19] of 73.9% and a viability, T/C [20] of 63.1%. It also gave a viability, T/C [29] of 50.1% and a viability, T/C [30] of 32.9%.

`Nc1ncn(C2CC(O)C(CO)S2)c(=O)n1` (stereo not given) + Cc1ccccc1N=Nc1ccc(NC(=O)c2ccnn2C)c(C)c1 was tested, and the IC50 (second compound 0.1 µM) was over 300 nM, the IC50 (second compound 0.316 µM) was over 300 nM and the IC50 (second compound 1 µM) was over 300 nM. The IC50 (second compound 3.16 µM) was over 300 nM, the IC50 (second compound 10 µM) was over 300 nM and the viability, T/C (second compound 0.1 µM, first compound 0.000949 µM) was 103%. The viability, T/C (second compound 0.1 µM, first compound 0.003 µM) was 109%, the viability, T/C [31] was 102% and the viability, T/C [32] was 99.8%. The viability, T/C [33] was 98.1%, the viability, T/C [34] was 85% and the viability, T/C (second compound 0.316 µM, first compound 0.000949 µM) was 117%. It also gave a viability, T/C (second compound 0.316 µM, first compound 0.003 µM) of 101%, a viability, T/C [35] of 103% and a viability, T/C [36] of 102%. For the same compound, the viability, T/C [37] was 94.3%, the viability, T/C [38] was 96.5% and the viability, T/C (second compound 1 µM, first compound 0.000949 µM) was 106%. The viability, T/C (second compound 1 µM, first compound 0.003 µM) was 112%, the viability, T/C [39] was 106% and the viability, T/C [40] was 90.5%. The viability, T/C [41] was 94.8%, the viability, T/C [42] was 84% and the viability, T/C (second compound 3.16 µM, first compound 0.000949 µM) was 83%. The viability, T/C (second compound 3.16 µM, first compound 0.003 µM) was 98.8%, the viability, T/C [43] was 94.7% and the viability, T/C [44] was 83.9%. The viability, T/C [45] was 90.7%, the viability, T/C [46] was 87.2% and the viability, T/C (second compound 10 µM, first compound 0.000949 µM) was 65.3%. The viability, T/C (second compound 10 µM, first compound 0.003 µM) was 67%, the viability, T/C [47] was 68% and the viability, T/C [48] was 64%. The viability, T/C [49] was 69.1% and the viability, T/C [50] was 66.6%.

Compound `O=C(C=Cn1cnc(-c2cc(C(F)(F)F)cc(C(F)(F)F)c2)n1)NNc1cnccn1` + Cc1ccccc1N=Nc1ccc(NC(=O)c2ccnn2C)c(C)c1 has an IC50 (second compound 0.1 µM) of 177 nM, an IC50 (second compound 0.316 µM) of 184 nM and an IC50 (second compound 1 µM) of 165 nM. It also gave an IC50 (second compound 3.16 µM) of 171 nM, an IC50 (second compound 10 µM) of 84.5 nM and a viability, T/C [31] of 85%. For the same compound, the viability, T/C [32] was 90.5%, the viability, T/C [33] was 72.8% and the viability, T/C [34] was 30.3%. For the same compound, the viability, T/C (second compound 0.1 µM, first compound 0.949 µM) was 11.2%, the viability, T/C (second compound 0.1 µM, first compound 3 µM) was 10.7% and the viability, T/C [35] was 91.6%. It also gave a viability, T/C [36] of 88.5%, a viability, T/C [37] of 76.9% and a viability, T/C [38] of 30.3%. It also gave a viability, T/C (second compound 0.316 µM, first compound 0.949 µM) of 8.26%, a viability, T/C (second compound 0.316 µM, first compound 3 µM) of 10.9% and a viability, T/C [39] of 87%. For the same compound, the viability, T/C [40] was 82.5%, the viability, T/C [41] was 68.8% and the viability, T/C [42] was 30.2%. It also gave a viability, T/C (second compound 1 µM, first compound 0.949 µM) of 10.4%, a viability, T/C (second compound 1 µM, first compound 3 µM) of 13.2% and a viability, T/C [43] of 84%. The viability, T/C [44] was 79.8%, the viability, T/C [45] was 70.7% and the viability, T/C [46] was 30.8%. The viability, T/C (second compound 3.16 µM, first compound 0.949 µM) was 9.79%, the viability, T/C (second compound 3.16 µM, first compound 3 µM) was 13% and the viability, T/C [47] was 68%. The viability, T/C [48] was 64.2%, the viability, T/C [49] was 47% and the viability, T/C [50] was 29.6%. The viability, T/C (second compound 10 µM, first compound 0.949 µM) was 11.9% and the viability, T/C (second compound 10 µM, first compound 3 µM) was 12.1%.
